Experimental data: ChEMBL document CHEMBL4699655, “Optimization of the In Vivo Potency of Pyrazolopyrimidine MALT1 Protease Inhibitors by Reducing Metabolism and Increasing Potency in Whole Blood” (J Med Chem, 2020)

Assays:
[1] = Intrinsic clearance in human liver microsomes; assay type: ADME, Microsome; conditions: read-out: CLH
[2] = Intrinsic clearance in rat liver microsomes; assay type: ADME, Microsome; conditions: read-out: CLH
[3] = Intrinsic clearance in mouse liver microsomes; assay type: ADME, Microsome; conditions: read-out: CLH
[4] = Lipophilicity, logP of the compound; conditions: octanol/water
[5] = Protein binding in human plasma; assay type: ADME, cell-free; conditions: read-out: PPB (converted)
[6] = Protein binding in rat plasma; assay type: ADME, cell-free; conditions: read-out: PPB (converted)
[7] = Clearance in mouse; assay type: ADME, organism-based; conditions: in vivo
[8] = Clearance in rat; assay type: ADME; conditions: in vivo
[9] = target: T1, Mucosa-associated lymphoid tissue lymphoma translocation protein 1 (Homo sapiens, UniProt Q9UDY8); assay: Inhibition of MALT1 in human whole blood assessed as reduction in PMA//anti-CD28 antibody-induced IL2 level pre-incubated for 1 hrs before stimulation with PMA//anti-CD28 antibody by MSD assay; assay type: tissue-based
T1 sequence (Q9UDY8 whole entry): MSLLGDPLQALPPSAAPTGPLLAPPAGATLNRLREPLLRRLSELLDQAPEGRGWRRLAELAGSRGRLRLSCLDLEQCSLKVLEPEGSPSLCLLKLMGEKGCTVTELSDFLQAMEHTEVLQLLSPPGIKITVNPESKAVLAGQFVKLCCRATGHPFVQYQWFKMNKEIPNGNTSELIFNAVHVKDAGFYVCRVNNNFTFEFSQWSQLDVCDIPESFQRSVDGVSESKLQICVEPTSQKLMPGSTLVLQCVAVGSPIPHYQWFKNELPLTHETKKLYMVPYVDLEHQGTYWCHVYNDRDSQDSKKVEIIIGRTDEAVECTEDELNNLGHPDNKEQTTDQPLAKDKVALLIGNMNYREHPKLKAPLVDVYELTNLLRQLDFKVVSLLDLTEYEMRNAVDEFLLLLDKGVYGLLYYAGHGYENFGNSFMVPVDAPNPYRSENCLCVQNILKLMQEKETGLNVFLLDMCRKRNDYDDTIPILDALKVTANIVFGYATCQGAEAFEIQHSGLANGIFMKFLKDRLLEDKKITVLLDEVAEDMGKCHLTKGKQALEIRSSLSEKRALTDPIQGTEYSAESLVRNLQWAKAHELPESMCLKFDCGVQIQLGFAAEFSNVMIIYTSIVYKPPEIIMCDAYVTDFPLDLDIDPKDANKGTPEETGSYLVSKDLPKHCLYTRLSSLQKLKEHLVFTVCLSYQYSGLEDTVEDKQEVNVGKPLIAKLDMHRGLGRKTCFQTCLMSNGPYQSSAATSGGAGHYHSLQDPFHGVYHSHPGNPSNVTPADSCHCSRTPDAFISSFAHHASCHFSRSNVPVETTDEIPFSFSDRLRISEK

[10] = Clearance in rat at 1 mg/kg, iv via cassette dosing; assay type: ADME, organism-based; conditions: in vivo
[11] = Half life in rat at 1 mg/kg, iv via cassette dosing; assay type: ADME, organism-based; conditions: in vivo
[12] = target: T2, Mucosa-associated lymphoid tissue lymphoma translocation protein 1 (Homo sapiens) (UniProt Q9UDY8); assay: Ratio of IC50 for inhibition of MALT1 in human whole blood assessed as reduction in PMA//anti-CD28 antibody-induced IL2 level to IC50 for inhibition of MALT1 in PMA-stimulated human Jurkat T cells assessed as reduction in IL2 level; assay type: tissue-based
T2 sequence (whole entry): T1 sequence (Q9UDY8 whole entry)

[13] = Oral bioavailability in Balb/C mouse at 3 mg/kg; assay type: ADME, organism-based; conditions: in vivo
[14] = Clearance in Sprague-Dawley rat at 1 mg/kg, iv; assay type: ADME, organism-based; conditions: in vivo
[15] = Clearance in Balb/C mouse at 1 mg/kg, iv; assay type: ADME, organism-based; conditions: in vivo
[16] = Terminal half life in Sprague-Dawley rat at 1 mg/kg, iv; assay type: ADME, organism-based; conditions: in vivo, read-out: beta t1/2 (converted)
[17] = Terminal half life in Balb/C mouse at 1 mg/kg, iv; assay type: ADME, organism-based; conditions: in vivo, read-out: beta t1/2 (converted)
[18] = Apparent volume of distribution at steady state in Sprague-Dawley rat at 1 mg/kg, iv; assay type: ADME, organism-based; conditions: in vivo, read-out: Vdss(app)
[19] = Apparent volume of distribution at steady state in Balb/C mouse at 1 mg/kg, iv; assay type: ADME, organism-based; conditions: in vivo, read-out: Vdss(app)
[20] = AUC (0 to 24 hrs) in Sprague-Dawley rat at 3 mg/kg, po; assay type: ADME, organism-based; set-up: time < 24 hr, route oral, dose 3 mg/kg; conditions: in vivo
[21] = AUC (0 to 24 hrs) in Balb/C mouse at 3 mg/kg, po; assay type: ADME, organism-based; set-up: time < 24 hr, route oral, dose 3 mg/kg; conditions: in vivo
[22] = Cmax in Sprague-Dawley rat at 3 mg/kg, po; assay type: ADME, organism-based; set-up: route oral, dose 3 mg/kg; conditions: in vivo
[23] = Cmax in Balb/C mouse at 3 mg/kg, po; assay type: ADME, organism-based; set-up: route oral, dose 3 mg/kg; conditions: in vivo
[24] = Oral bioavailability in Sprague-Dawley rat at 3 mg/kg; assay type: ADME, organism-based; conditions: in vivo
[25] = target: T1, Mucosa-associated lymphoid tissue lymphoma translocation protein 1; assay: Inhibition of MALT1 (unknown origin) using Ac-Trp-Leu-Arg-Ser-Arg^Cys(PT14)-NH2 as substrate preincubated for 60 mins followed by substrate addition and measured after 60 mins by fluorescence assay
[26] = system: Rattus norvegicus; assay: Anti-autoimmune disease activity in OFA rat model of T-cell dependent B cell response assessed as reduction in SRBC-induced IgM producing B cells at 3 mg/kg, po BID for 4 days starting 2 days prior to immunization by ex vivo plaque forming assay relative to control; conditions: 96 h, read-out: INH
[27] = system: Rattus norvegicus; assay: Anti-autoimmune disease activity in OFA rat model of T-cell dependent B cell response assessed as reduction in SRBC-induced IgM producing B cells at 10 mg/kg, po BID for 4 days starting 2 days prior to immunization by ex vivo plaque forming assay relative to control; conditions: 96 h, read-out: INH
[28] = system: Rattus norvegicus; assay: Anti-autoimmune disease activity in OFA rat model of T-cell dependent B cell response assessed as reduction in SRBC-induced IgM producing B cells dosed orally twice daily for 4 days starting 2 days prior to immunization by ex vivo plaque forming assay relative to control; assay type: functional
[29] = Cmax in blood of OFA rat model of T-cell dependent B cell response at 3 mg/kg, po BID for 4 days starting 2 days prior to immunization and measured after 3 hrs; assay type: ADME, organism-based; set-up: route oral, dose 3 mg/kg, time 4 day
[30] = Cmax in blood of OFA rat model of T-cell dependent B cell response at 3 mg/kg, po BID for 4 days starting 2 days prior to immunization and measured after 14 hrs; assay type: ADME, organism-based; set-up: route oral, dose 3 mg/kg, time 4 day
[31] = Cmax in blood of OFA rat model of T-cell dependent B cell response at 10 mg/kg, po BID for 4 days starting 2 days prior to immunization and measured after 3 hrs; assay type: ADME, organism-based; set-up: route oral, dose 10 mg/kg, time 4 day
[32] = Cmax in blood of OFA rat model of T-cell dependent B cell response at 10 mg/kg, po BID for 4 days starting 2 days prior to immunization and measured after 14 hrs; assay type: ADME, organism-based; set-up: route oral, time 4 day, dose 10 mg/kg

| microsomal CLint [1] [µL/min/mg] | microsomal CLint [2] [µL/min/mg] | microsomal CLint [3] [µL/min/mg] | logP [4] | fraction unbound [5] | fraction unbound [6] | Structure (SMILES) | further results |
| --- | --- | --- | --- | --- | --- | --- | --- |
| 61 | < 25 |  |  |  |  | CC(C)c1c(NC(=O)Nc2ccnc(C(F)(F)F)c2)cnc2cc(Cl)nn12 |  |
| < 25 | 50.4 | < 25 | 3.2 | < 0.01 | 0.013 | O=C(Nc1cnc(-n2nccn2)c(Cl)c1)Nc1cnc2cc(Cl)nn2c1C1CC1 |  |
| 114 |  |  |  |  |  | C[C@H]1COC[C@H](C)N1c1c(NC(=O)Nc2ccnc(C(F)(F)F)c2)cnc2cc(Cl)nn12 | clearance [7]: 15 mL/min/kg; clearance [8]: 25 mL/min/kg; IC50 [9]: 9 µM; clearance [10]: 46 mL/min/kg; half-life [11]: 3.3 h; Ratio IC50 [12]: 50 |
| < 25 | 70.1 |  | 3.4 | 0.015 | 0.011 | COC[C@@H](C)c1c(NC(=O)Nc2cnc(-n3nccn3)c(Cl)c2)cnc2cc(Cl)nn12 |  |
| < 25 | < 25 | < 25 |  | 0.038 | 0.027 | CO[C@@H](C)c1c(NC(=O)Nc2ccnc(C(F)(F)F)c2)cnc2cc(Cl)nn12 | bioavailability [13]: 50%; clearance [14]: 9 mL/min/kg; clearance [15]: 28 mL/min/kg; half-life [16]: 9.6 h; half-life [17]: 1.2 h; Vd [18]: 5.3 L/kg; Vd [19]: 3 L/kg; AUC [20]: 13.4 µM·h; AUC [21]: 2.3 µM·h; Cmax [22]: 700 nM; Cmax [23]: 500 nM; bioavailability [24]: 86% |
| < 25 | 25.5 |  | 3 | 0.012 | 0.023 | O=C(Nc1cnc(-n2nccn2)c(Cl)c1)Nc1cnc2cc(Cl)nn2c1C1CCOCC1 |  |
| < 25 | < 25 |  | 3 | 0.019 | 0.035 | COCc1c(NC(=O)Nc2cnc(-n3nccn3)c(Cl)c2)cnc2cc(Cl)nn12 |  |
| < 25 | < 25 |  |  |  |  | Cc1c(NC(=O)Nc2ccnc(C(F)(F)F)c2)cnc2cc(Cl)nn12 | IC50 [25]: 0.998 µM |
|  | < 25 |  |  | 0.023 | 0.032 | CO[C@H](C)c1c(NC(=O)Nc2cnc(-n3nccn3)c(Cl)c2)cnc2cc(Cl)nn12 |  |
| < 25 | < 25 | < 25 | 4 | < 0.01 | < 0.01 | CC(C)c1c(NC(=O)Nc2cnc(-n3nccn3)c(Cl)c2)cnc2cc(Cl)nn12 | clearance [10]: 18 mL/min/kg; half-life [11]: 5.4 h; inhibition in vivo at 3 mg/kg [26]: 60%; inhibition in vivo at 10 mg/kg [27]: 96%; ED50 ([28]; po, 96 h, time 4 day): 3 mg/kg; Activity ([28]; time 4.0 day): Dose-dependent effect; Cmax [29]: 1500 nM; Cmax [30]: 400 nM; Cmax [31]: 7600 nM; Cmax [32]: 3300 nM |
| 81.4 | 60.9 | < 25 | 3.4 | 0.014 | 0.012 | COC[C@H](C)c1c(NC(=O)Nc2cnc(-n3nccn3)c(Cl)c2)cnc2cc(Cl)nn12 |  |
